Consider one compound from paper PMC5510229, “BCAT1 controls metabolic reprogramming in activated human macrophages and is associated with inflammatory diseases” (Nature Communications, 2017).

Molecules are shown by their SMILES.

Broadly, the AUC(0-inf) is the area under the concentration-time curve extrapolated to infinity. A word on the AUC(0-t): it is exposure summed from dosing to a finite time, without extrapolation to infinity. Broadly, the MRT is the average time that molecules of a dose stay in the body. The term clearance denotes the rate of elimination divided by the concentration. By half-life is commonly meant the time needed for the level to fall by half in the phase considered. A lower half-life goes with rapid decline. For orientation: Cmax means the maximum level reached in the sampled fluid or tissue. What is called Tmax is the time at which the peak concentration occurs. A word on the bioavailability: it is dose-corrected exposure relative to a reference, in per cent.

One data set can be described thus: In vivo pharmacokinetics. Further details: species or system ICR mice. As to conditions: ICR, mouse, plasma. As for the experimental part:
The experiment was performed by Eurofins Panlabs Inc. Briefly, fasting pharmacokinetic parameters were obtained after administration of 125 mg kg^−1 i.v. or 500 mg kg^−1 p.o ERG240 to ICR mice and blood collection at 3, 10, 30, 60, 120 and 240 min (i.v. dosing) or 10, 30, 60, 120, 240 and 360 min (p.o. dosing). Each animal was subjected to a single blood draw and 3 animals per time point were used. Parameters were obtained from non-compartmental analysis of the plasma data using WinNonlin. Experimental details are provided in Supplementary Methods. […]
In v ivo pharmaco kinetics
ICR mice that have been fasted overnight were administered 125 mg/kg ERG240 i.v. or 500 mg/kg ERG240 p.o. At predetermined time points, mice were sedated under general inhalant anaesthesia (3 % isoflurane) and 300- 400 µL of blood were collected in tubes coated with lithium heparin by cardiac puncture . The plasma was harvested after cent rifugation and kept frozen at - 20 °C until further processing. Proteins present in the plasma were precipitated b y acetonitrile. Specificall y, 50 µL of plasm a samples were trans ferred to a 9 6-well plate and 10 µL of a acetonitrile/water 50/50 (v/v) solution was added to each well. At this point, 150 μ L of 1 ng/μ L of aspirin in acetonitrile were also added as internal standard. After sample mixing and centrifugation, 100 µL supernatant were withdrawn from each well and mixed with […] w ater for HP LC -MS/MS analysis. Sample anal ysis b y HPLC -MS/MS employed a Agilent Poroshell 120 EC-C18 column 2.7μm (3.0 x 50mm) and a gradient elution with two mobile phases (A: acetonitrile/water/formic acid 99/1/0.02 (v/v/v);
B:acetonitrile/water/formic acid 1/99/0.02 (v/v/v)). A volume of […] of sample were injected into the column and the sample concentration was determined by employing calibration curves that were generated prior to sample anal ysis b y spiking drug- free plasma with specified concentrations of ERG240. The quantitation range was 5- 10000 ng/mL.
Following sample analysis, plots of plasma concentration of ERG240 vs. time were constructed. Fundamental pharmacokinetic parameters were calculated from the non-compartmental analysis of the plasma data using WinNonlin. […]
Pannus: 0=Normal; 1=Minimal infiltration of pannus in cartilage and subchondral bone; 2=Mild infiltration of pannus in cartilage with marginal zone destruction of hard tissue in affected joints; 3=Moderate infiltration of pannus in cartilage with moderate hard tissue destruction in affected joints; 4=Marked infiltration of pannus in cartilage with marked destruction of joint architecture, most joints; 5=Severe infiltration associated with total or near total destruction of joint architecture, all joints. Cartilage Damage: 0=Normal;

A short description of data set [1]: Blood brain barrier crossing. An excerpt: NCOMMS-16-23550_Point by Point Responses Papathanassiu et al.
6. It would be interesting to know why the half -life in animals is very low. Again, is the drug metabolized by the organism? (see also point 3).
Authors’ reply. The pharmacokinetic study that determined the half -life of the drug in mice […]
ERG240 is completely absorbed and not subject to first -pass metabolism. Since the drug is structurally a leucine analogue, it is likely to be uptaken by the ubiquitously expressed amino acid transporter LAT1. In that light, the low half -life of the drug is related to its complete and swift absorption by various sites rather to a phase I or II metabolic reaction. ERG240 is also […]
preferentially in the brain. […]
metabolism of the drug in human macrophages, please see the response to point 3, which […]
7. Leucine is degraded to acetyl -Coa and acetoacetate both fueling cellular acetyl -Coa pools. Does decreased activity of BCAT1 impact cellular acetyl -Coa and citrate levels? Itaconate synthesis is a sink for citrate and diverts carbon away from the TCA cycle. […]
have measured citrate levels in 4 donors following LPS and LPS + ERG240 treatment for 3 hours by GC-MS. […]
Itaconate levels measured by GC/MS were further confirmed in si-BCAT1 and si-Control MDMs from independent donors (n=4, left panel). […]

In the data set “In vivo pharmacokinetics” (IV 125 mg kg^−1, mice), `CC(=O)C(C)CCC(=O)O` (centres unmarked) [ERG240] yielded an AUC(0-inf) of 149 µg·h/mL, an exposure AUC(0-t) of 149 µg·h/mL, a C0 of 231 µg/mL and a mean residence time MRT of 33 min. Moreover, in “In vivo pharmacokinetics” (IV 125 mg kg^−1, mice), the clearance was 45.6 mL/min/kg and the half-life is 7.2 min. In the data set “In vivo pharmacokinetics” (oral 500 mg kg^−1, mice), this compound returned an area under the curve AUC(0-inf) of 794 µg·h/mL, an AUC(0-t) of 794 µg·h/mL, a maximum concentration (Cmax) of 351 µg/mL and a mean residence time (MRT) of 74.4 min. Further, the Tmax in the data set “In vivo pharmacokinetics” (oral 500 mg kg^−1, mice) is 60 min. In addition, the bioavailability in “In vivo pharmacokinetics” (oral 500 mg kg^−1, mice, read-out: F (bioavailability)) came out at 100%. Also, in data set [1], the “accumulation in the brain” value is “does not accumulate” and the “crossing of the blood brain barrier” value is “capable of crossing the blood brain barrier”.
